Data taken from patent US10883088B2, “Biological upgrading of hydrocarbon streams with oxygenases” (priority 2017, dated 2021).

Tests used:
HugZ = biological target: T1, HugZ (Helicobacter pylori, UniProt O25087); assay: UV-VIS Soret band screen of model porphyrins with HugZ; assay type: biochemical, H. pylori; details: porphyrin treated with HugZ; UV-VIS absorbance, room temperature; shift vs Control indicates protein-porphyrin interaction
T1 construct: Expression plasmids were constructed by inserting the gene for each oxygenase into the base vector pET28b; His-tag (N); made in house; host or cells: E. coli BL21-DE3(T1), pET28b
Source text: (§1) UV-VIS spectroscopy was used for initial screening of protein activity against numerous model compounds because each model porphyrin has a characteristic UV-VIS absorbance spectrum. A shift in the wavelength of maximal absorbance, commonly referred to as the “Soret band,” indicates a change in porphyrin conformation or a protein-porphyrin interaction.
(§2) To prepare crude protein, aliquots were thawed on ice and diluted 4-fold with protein assay buffer (PAB). To isolate purified oxygenases, protein aliquots were thawed on ice and proteins of interest were purified by HIS-tag-Ni-NTA column affinity followed by size exclusion chromatography with PD-10 desalting columns. Purified protein was eluted in PAB, collected in the first 2 mL PD-10 column flow-through fraction. Relative to the initial protein concentration, samples were diluted 4-fold to parallel crude protein samples.
(§3) Model porphyrin stocks were prepared in porphyrin phosphate buffer (PPB), stored at 4° C. in amber bottles to protect samples from light, and used or discarded within one month.
(§4) Amber tubes were used for all assays to protect samples from light. Crude and purified protein samples were combined with porphyrin substrates, to achieve final concentrations in Table 4, and total assay volumes were raised to 10 mL with Tris buffer. Absorbance of a 2.4 mL sample was measured in a 1 cm quartz cuvette, at room temperature, 1 nm resolution, and 0.7 sec. integration time on an Evolution201® UV-VIS spectrophotometer with Thermo INSIGHT® software. Samples were incubated for 24 hrs. at room temperature and 75 RPM and their final UV-VIS absorbance spectra was measured. An absorbance baseline was collected using Tris buffer at the beginning of each time point and ≤1% error was observed between technical replicates. Crude, empty pET28b vector (EV) strain lysate protein and PAB only controls were run in parallel with experimental samples (EXP) for each porphyrin.

HmuO = assay: UV-VIS Soret band screen of model porphyrins with HmuO; assay type: biochemical, C. jeikeium; details: porphyrin treated with HmuO; UV-VIS absorbance, room temperature; shift vs Control indicates protein-porphyrin interaction
Source text: (§5) A shift in the wavelength of maximal absorbance, commonly referred to as the “Soret band,” indicates a change in porphyrin conformation or a protein-porphyrin interaction.
as §2, §3
as §4, with “measured.” for “measured. An absorbance baseline was collected using Tris buffer at the beginning of each time point and ≤1% error was observed between technical replicates. Crude, empty pET28b vector (EV) strain lysate protein and PAB only controls were run in parallel with experimental samples (EXP) for each porphyrin.”

ChuS = assay: UV-VIS Soret band screen of model porphyrins with ChuS; assay type: biochemical, E. coli; details: porphyrin treated with ChuS; UV-VIS absorbance, room temperature; shift vs Control indicates protein-porphyrin interaction
Source text: as §1, §2, §3, §4

IsdI = biological target: T2, IsdI (Staphylococcus aureus, UniProt Q99X56); assay: UV-VIS Soret band screen of model porphyrins with IsdI; assay type: biochemical, S. aureus; details: porphyrin treated with IsdI; UV-VIS absorbance, room temperature; shift vs Control indicates protein-porphyrin interaction
T2 construct: Expression plasmids were constructed by inserting the gene for each oxygenase into the base vector pET28b; His-tag (N); made in house; host or cells: E. coli BL21-DE3(T1), pET28b
Source text: as §1, §2, §3, §4

IsdG = biological target: T3, IsdG (Staphylococcus aureus, UniProt Q99UW8); assay: UV-VIS Soret band screen of model porphyrins with IsdG; assay type: biochemical, S. aureus; details: porphyrin treated with IsdG; UV-VIS absorbance, room temperature; shift vs Control indicates protein-porphyrin interaction
T3 construct: Expression plasmids were constructed by inserting the gene for each oxygenase into the base vector pET28b; His-tag (N); made in house; host or cells: E. coli BL21-DE3(T1), pET28b
Source text: as §1, §2, §3, §4

PigA = biological target: T4, PigA (Pseudomonas aeruginosa, UniProt G3XCZ8); assay: UV-VIS Soret band screen of model porphyrins with PigA; assay type: biochemical, P. aeruginosa; details: porphyrin treated with PigA; UV-VIS absorbance, room temperature; shift vs Control indicates protein-porphyrin interaction
T4 construct: Expression plasmids were constructed by inserting the gene for each oxygenase into the base vector pET28b; His-tag (N); made in house; host or cells: E. coli BL21-DE3(T1), pET28b
Source text: as §5, §2, §3
as §4, with “measured.” for “measured. An absorbance baseline was collected using Tris buffer at the beginning of each time point and ≤1% error was observed between technical replicates. Crude, empty pET28b vector (EV) strain lysate protein and PAB only controls were run in parallel with experimental samples (EXP) for each porphyrin.”

| Compound | Soret band wavelength (HugZ) [nm] | Soret band wavelength (HmuO) [nm] | Soret band wavelength (ChuS) | Soret band wavelength (IsdI) [nm] | Soret band wavelength (IsdG) [nm] | Soret band wavelength (PigA) [nm] |
| --- | --- | --- | --- | --- | --- | --- |
| O=C(O)c1ccc(-c2c3nc(c(-c4ccc(C(=O)O)cc4)c4ccc([n-]4)c(-c4ccc(C(=O)O)cc4)c4nc(c(-c5ccc(C(=O)O)cc5)c5ccc2[n-]5)C=C4)C=C3)cc1.[Ni+2] [Ni(II)-meso-tetra-(4-carboxyphenyl) porphine] | 400 | 405 | 410/405 | 400 | 400 | 404 |
| C[n+]1ccc(-c2c3nc(c(-c4cc[n+](C)cc4)c4ccc([n-]4)c(-c4cc[n+](C)cc4)c4nc(c(-c5cc[n+](C)cc5)c5ccc2[n-]5)C=C4)C=C3)cc1.[Cl-].[Cl-].[Cl-].[Cl-].[Ni+2] [Ni(II)-meso-tetra-(Nmethyl-4-pyridyl) porphine tetrachloride] |  | 440 | 440 nm |  |  |  |
| C=CC1=C(C)c2cc3[n-]c(cc4[n-]c(cc5nc(cc1n2)C(C)=C5C=C)c(C)c4CCC(=O)[O-])c(CCC(=O)[O-])c3C.[H+].[H+].[Ni+2] [Ni(II)-protoporphyrin (IX)] | 417 | 400 | 400 nm | 400 | 400 | 400 |
| C[n+]1ccc(-c2c3nc(c(-c4cc[n+](C)cc4)c4ccc([n-]4)c(-c4cc[n+](C)cc4)c4nc(c(-c5cc[n+](C)cc5)c5ccc2[n-]5)C=C4)C=C3)cc1.[Cl-].[Cl-].[Cl-].[Cl-].[O]=[V+2] [VO-meso-tetra-(N-methyl-4-pyridyl), VO-meso-tetra-(N-methyl-4-pyridyl) porphine tetrachloride] |  | 422 | 422 nm |  |  |  |
| Fe(III)-meso-tetra-(4-carboxyphenyl) porphine chloride | 418 | 417 | 424/420 | 410 | 410 | 414 |
| hemin | 405 | 399 | 405/400 | 390 | 390 | 400 |
